Source: patent US20240409585A1, “MACROCYCLIC IMMUNOMODULATORS” (priority 2021, published 2024)
Bridge positions count the residues as written; N and C are the ends. Square brackets hold non-standard residues; d marks the D form. Peptide text beside a SMILES is read from it. * marks the point of attachment. ξ: configuration not given here. dPhe(4-NO2) = N[C@H](Cc1ccc([N+](=O)[O-])cc1)C(=O)O; Phe(4-COOH) = N[C@@H](Cc1ccc(C(=O)O)cc1)C(=O)O; Bip = N[C@@H](Cc1ccc(-c2ccccc2)cc1)C(=O)O; Phe(3-Cl) = N[C@@H](Cc1cccc(Cl)c1)C(=O)O; Phe(3-Me) = Cc1cccc(C[C@H](N)C(=O)O)c1; 2Nal = N[C@@H](Cc1ccc2ccccc2c1)C(=O)O; Phe(2-Me) = Cc1ccccc1C[C@H](N)C(=O)O; Val(3-OH) = CC(C)(O)[C@H](N)C(=O)O; 3Pal = N[C@@H](Cc1cccnc1)C(=O)O; 4Pal = N[C@@H](Cc1ccncc1)C(=O)O; Cha = N[C@@H](CC1CCCCC1)C(=O)O; Ile(3ξ) = CCC(C)[C@H](N)C(=O)O; Thr(3ξ) = CC(O)[C@H](N)C(=O)O; Carboxymethyl = O=C(O)C*; NMeA = CN[C@@H](C)C(=O)O; Orn = NCCC[C@H](N)C(=O)O; Dab = NCC[C@H](N)C(=O)O; Dap = NC[C@H](N)C(=O)O

Each compound was assayed against T1, PE-labeled human PD-L1-Ig binding to Jurkat cell line over-expressing human PD-1 (Jurkat-PD-1) (Homo sapiens, UniProt Q15116) (assay: Jurkat-PD-1 Cell Binding High-Content Screening Assay (CBA): Method 1). Conditions: Jurkat HPDL1 PD1 IC50 (uM) (Method 1), Jurkat-hPD-1 cells, PE-labeled PD-L1-Ig 20 nM final.
T1 construct: expressed in transfected cells; host or cells: Jurkat
T1 sequence (Q15116 25-288): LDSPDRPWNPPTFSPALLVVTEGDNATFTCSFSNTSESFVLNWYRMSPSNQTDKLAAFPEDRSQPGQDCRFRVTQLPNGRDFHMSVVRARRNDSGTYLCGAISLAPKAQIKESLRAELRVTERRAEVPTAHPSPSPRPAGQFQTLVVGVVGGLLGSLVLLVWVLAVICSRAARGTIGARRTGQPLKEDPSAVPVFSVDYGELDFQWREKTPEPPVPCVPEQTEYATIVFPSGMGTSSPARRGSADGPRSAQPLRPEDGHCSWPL

Compound | IC50
CC(C)C[C@@H]1NC(=O)[C@H](CCN)NC(=O)[C@@H](CC(C)C)NC(=O)[C@H](C)N(C)C(=O)[C@H](CCCNC(=N)N)NC(=O)[C@H](Cc2ccc(-c3ccccc3)cc2)NC(=O)[C@H](C(C)C)NC(=O)[C@H](Cc2c[nH]c3ccccc23)NC(=O)[C@H](CC(=O)O)NC(=O)[C@H](Cc2ccc(O)cc2)NC(=O)[C@H](CC(N)=O)NC(=O)CSC[C@@H](C(=O)N[C@@H](C)C(N)=O)NC(=O)[C@H](CO)NC(=O)[C@H](C(C)C)NC1=O [Compound 1054] ({CH2CO}-NYDWV[Bip]R[NMeA][dL][Dab]LVSCA-NH2; thioether N-14) | 0.09 µM

Same assay, conditions: Jurkat-hPD-1 cells, PE-labeled PD-L1-Ig 20 nM final; read-out: Jurkat HPDL1 PD1 IC50 (uM) (Method 1)

Compound | IC50
CC(C)C[C@@H]1NC(=O)[C@H](Cc2c[nH]c3ccccc23)NC(=O)[C@H](CC(=O)O)NC(=O)[C@H](Cc2ccc(O)cc2)NC(=O)[C@H](CC(N)=O)NC(=O)CSC[C@@H](C(=O)N[C@@H](C)C(N)=O)NC(=O)[C@H]([C@@H](C)O)NC(=O)[C@H](C(C)C)NC(=O)[C@H](CC(C)C)NC(=O)[C@H](CCCNC(=N)N)NC(=O)[C@@H](CC(C)C)NC(=O)[C@H](C)N(C)C(=O)[C@H](CCCNC(=N)N)NC(=O)[C@H](Cc2ccc(-c3ccccc3)cc2)NC1=O [Compound 1215] ({CH2CO}-NYDWL[Bip]R[NMeA][dL]RLVTCA-NH2; thioether N-14) | 0.08 µM
Cc1ccccc1C[C@@H]1NC(=O)[C@H](Cc2ccccc2)NC(=O)CSC[C@@H](C(=O)N[C@@H](C)C(N)=O)NC(=O)[C@H](CO)NC(=O)[C@H](C(C)C)NC(=O)[C@H](CC(C)C)NC(=O)[C@H](CC(N)=O)NC(=O)[C@@H](C)NC(=O)[C@H](C)N(C)C(=O)[C@H](C(C)C)NC(=O)[C@H](Cc2ccc(-c3ccccc3)cc2)NC(=O)[C@H](CC(C)C)NC(=O)[C@H](Cc2c[nH]c3ccccc23)NC(=O)[C@H](CC(=O)O)NC1=O [Compound 1794] ({CH2CO}-F[Phe(2-Me)]DWL[Bip]V[NMeA][dA]NLVSCA-NH2; thioether N-14) | 0.15 µM
CC(C)C[C@H]1NC(=O)[C@H](C)N(C)C(=O)[C@H](C(C)C)NC(=O)[C@H](Cc2ccc(-c3ccccc3)cc2)NC(=O)[C@H](C(C)C)NC(=O)[C@H](Cc2c[nH]c3ccccc23)NC(=O)[C@H](CC(=O)O)NC(=O)[C@H](Cc2ccc(O)cc2)NC(=O)[C@H](CC(N)=O)NC(=O)CSC[C@@H](C(=O)N[C@@H](C)C(N)=O)NC(=O)[C@H]([C@@H](C)O)NC(=O)[C@H](C(C)C)NC(=O)[C@H](CC2CCCCC2)NC(=O)[C@H](CCN)NC1=O [Compound 1296] ({CH2CO}-NYDWV[Bip]V[NMeA][dL][Dab][Cha]VTCA-NH2; thioether N-14) | 0.01 µM
Cc1cccc(C[C@@H]2NC(=O)[C@H](CC(=O)O)NC(=O)[C@H](Cc3ccc(C(=O)O)cc3)NC(=O)[C@H](CN)NC(=O)CSC[C@@H](C(=O)N[C@@H](C)C(N)=O)NC(=O)[C@H]([C@@H](C)O)NC(=O)[C@H](C(C)C)NC(=O)[C@H](CC(C)C)NC(=O)[C@H](CCN)NC(=O)[C@@H](CC(C)C)NC(=O)[C@H](C)N(C)C(=O)[C@H](C(C)C)NC(=O)[C@H](Cc3ccc(-c4ccccc4)cc3)NC(=O)[C@H](C(C)C)NC2=O)c1 [Compound 1415] ({CH2CO}-[Dap][Phe(4-COOH)]D[Phe(3-Me)]V[Bip]V[NMeA][dL][Dab]LVTCA-NH2; thioether N-14) | 0.04 µM
CCC(C)[C@@H]1NC(=O)[C@H](Cc2ccc(-c3ccccc3)cc2)NC(=O)[C@H](CC(C)C)NC(=O)[C@H](Cc2c[nH]c3ccccc23)NC(=O)[C@H](CC(=O)O)NC(=O)[C@H](Cc2ccc(C(=O)O)cc2)NC(=O)[C@H](Cc2ccc(OCC(=O)O)cc2)NC(=O)CSC[C@@H](C(=O)N[C@@H](CC(N)=O)C(N)=O)NC(=O)[C@H]([C@@H](C)O)NC(=O)[C@H](C(C)C)NC(=O)[C@H](CC2CCCCC2)NC(=O)[C@H](CCN)NC(=O)[C@@H](CC(C)C)NC(=O)[C@H](C)N(C)C1=O (stereo partly drawn) [Compound 1922] ({CH2CO}-Y(Carboxymethyl)[Phe(4-COOH)]DWL[Bip][Ile(3ξ)][NMeA][dL][Dab][Cha]VTCN-NH2; thioether N-14) | 0.04 µM
CC(C)C[C@@H]1NC(=O)[C@H](CCCNC(=N)N)NC(=O)[C@@H](Cc2ccccc2)NC(=O)[C@H](C)N(C)C(=O)[C@H](CCCNC(=N)N)NC(=O)[C@H](Cc2ccc(-c3ccccc3)cc2)NC(=O)[C@H](C(C)C)NC(=O)[C@H](Cc2c[nH]c3ccccc23)NC(=O)[C@H](CC(=O)O)NC(=O)[C@H](Cc2ccncc2)NC(=O)[C@H](CC(N)=O)NC(=O)CSC[C@@H](C(=O)N[C@@H](C)C(N)=O)NC(=O)[C@H]([C@@H](C)O)NC(=O)[C@H](C(C)C)NC1=O [Compound 1162] ({CH2CO}-N[4Pal]DWV[Bip]R[NMeA][dF]RLVTCA-NH2; thioether N-14) | 0.22 µM
CC(C)C[C@@H]1NC(=O)[C@H](Cc2c[nH]c3ccccc23)NC(=O)[C@H](CC(=O)O)NC(=O)[C@H](Cc2ccc(O)cc2)NC(=O)[C@H](Cc2cnc[nH]2)NC(=O)CSC[C@@H](C(=O)NCC(N)=O)NC(=O)[C@H](CO)NC(=O)[C@H](C(C)C)NC(=O)[C@H](CC(C)C)NC(=O)[C@H](CC(N)=O)NC(=O)[C@H](CC(N)=O)NC(=O)[C@H](C)N(C)C(=O)[C@H](C(C)C)NC(=O)[C@H](Cc2ccc(-c3ccccc3)cc2)NC1=O [Compound 1808] ({CH2CO}-HYDWL[Bip]V[NMeA]NNLVSCG-NH2; thioether N-14) | 0.86 µM
CC(C)C[C@@H]1NC(=O)[C@H](CCN)NC(=O)[C@@H](CC(C)C)NC(=O)[C@H](C)N(C)C(=O)[C@H](CCC(=O)O)NC(=O)[C@H](Cc2ccc(-c3ccccc3)cc2)NC(=O)[C@H](C(C)C)NC(=O)[C@H](Cc2c[nH]c3ccccc23)NC(=O)[C@H](CC(=O)O)NC(=O)[C@H](Cc2ccc(C(=O)O)cc2)NC(=O)[C@H](CC(N)=O)NC(=O)CSC[C@@H](C(=O)N[C@@H](C)C(N)=O)NC(=O)[C@H]([C@@H](C)O)NC(=O)[C@H](C(C)C)NC1=O [Compound 1389] ({CH2CO}-N[Phe(4-COOH)]DWV[Bip]E[NMeA][dL][Dab]LVTCA-NH2; thioether N-14) | 0.03 µM
CC(C)C[C@@H]1NC(=O)[C@H](Cc2c[nH]c3ccccc23)NC(=O)[C@H](CC(=O)O)NC(=O)[C@H](Cc2ccc3ccccc3c2)NC(=O)[C@H](Cc2ccccc2)NC(=O)CSC[C@@H](C(=O)N[C@@H](C)C(N)=O)NC(=O)[C@H](CO)NC(=O)[C@H](C(C)C)NC(=O)[C@H](CC(C)C)NC(=O)[C@H](CC(N)=O)NC(=O)[C@@H](C)NC(=O)[C@H](C)N(C)C(=O)[C@H](C(C)C)NC(=O)[C@H](Cc2ccc(-c3ccccc3)cc2)NC1=O [Compound 1800] ({CH2CO}-F[2Nal]DWL[Bip]V[NMeA][dA]NLVSCA-NH2; thioether N-14) | 0.18 µM
CC(C)C[C@@H]1NC(=O)[C@H](CCCNC(=N)N)NC(=O)[C@@H](Cc2ccc([N+](=O)[O-])cc2)NC(=O)[C@H](C)N(C)C(=O)[C@H](CCCNC(=N)N)NC(=O)[C@H](Cc2ccc(-c3ccccc3)cc2)NC(=O)[C@H](C(C)C)NC(=O)[C@H](Cc2c[nH]c3ccccc23)NC(=O)[C@H](CC(=O)O)NC(=O)[C@H](Cc2ccc(O)cc2)NC(=O)[C@H](Cc2ccccc2)NC(=O)CSC[C@@H](C(=O)N[C@@H](C)C(N)=O)NC(=O)[C@H]([C@@H](C)O)NC(=O)[C@H](C(C)C)NC1=O [Compound 1102] ({CH2CO}-FYDWV[Bip]R[NMeA][dPhe(4-NO2)]RLVTCA-NH2; thioether N-14) | 0.3 µM
CC(C)C[C@@H]1NC(=O)[C@H](CCN)NC(=O)[C@@H](CC(C)C)NC(=O)[C@H](C)N(C)C(=O)[C@H](CCCNC(=N)N)NC(=O)[C@H](Cc2ccc(-c3ccccc3)cc2)NC(=O)[C@H](C(C)C)NC(=O)[C@H](Cc2c[nH]c3ccccc23)NC(=O)[C@H](CC(=O)O)NC(=O)[C@H](Cc2cccc(Cl)c2)NC(=O)[C@H](CN)NC(=O)CSC[C@@H](C(=O)N[C@@H](C)C(N)=O)NC(=O)[C@H]([C@@H](C)O)NC(=O)[C@H](C(C)C)NC1=O [Compound 1445] ({CH2CO}-[Dap][Phe(3-Cl)]DWV[Bip]R[NMeA][dL][Dab]LVTCA-NH2; thioether N-14) | 0.11 µM
CC(C)C[C@@H]1NC(=O)[C@H](CCCNC(=N)N)NC(=O)[C@@H](CC(C)C)NC(=O)[C@H](C)N(C)C(=O)[C@H](CCCNC(=N)N)NC(=O)[C@H](Cc2ccc(-c3ccccc3)cc2)NC(=O)[C@H](C(C)C)NC(=O)[C@H](Cc2c[nH]c3ccccc23)NC(=O)[C@H](CC(=O)O)NC(=O)[C@H](Cc2ccc(O)cc2)NC(=O)[C@H](Cc2cccnc2)NC(=O)CSC[C@@H](C(=O)N[C@@H](C)C(N)=O)NC(=O)[C@H](CO)NC(=O)[C@H](C(C)C)NC1=O [Compound 1036] ({CH2CO}-[3Pal]YDWV[Bip]R[NMeA][dL]RLVSCA-NH2; thioether N-14) | 0.05 µM
CC(C)C[C@H]1NC(=O)[C@H](C)N(C)C(=O)[C@H](CCCN)NC(=O)[C@H](Cc2ccc(-c3ccccc3)cc2)NC(=O)[C@H](C(C)C)NC(=O)[C@H](Cc2c[nH]c3ccccc23)NC(=O)[C@H](CC(=O)O)NC(=O)[C@H](Cc2ccc(O)cc2)NC(=O)[C@H](CC(N)=O)NC(=O)CSC[C@@H](C(=O)N[C@@H](C)C(N)=O)NC(=O)[C@H]([C@@H](C)O)NC(=O)[C@H](C(C)C)NC(=O)[C@H](CC2CCCCC2)NC(=O)[C@H](CCN)NC1=O [Compound 1278] ({CH2CO}-NYDWV[Bip][Orn][NMeA][dL][Dab][Cha]VTCA-NH2; thioether N-14) | 0.01 µM
Cc1cccc(C[C@@H]2NC(=O)[C@H](CC(=O)O)NC(=O)[C@H](Cc3ccc(OCC(=O)O)cc3)NC(=O)[C@H](Cc3ccncc3)NC(=O)CSC[C@@H](C(=O)N[C@@H](CCN)C(N)=O)NC(=O)[C@H](C(C)O)NC(=O)[C@H](C(C)(C)O)NC(=O)[C@H](CC3CCCCC3)NC(=O)[C@H](CCN)NC(=O)[C@@H](CC(C)C)NC(=O)[C@H](C)N(C)C(=O)[C@H](Cc3ccc(OCC(=O)O)cc3)NC(=O)[C@H](Cc3ccc(-c4ccccc4)cc3)NC(=O)[C@H](Cc3ccc(C(=O)O)cc3)NC2=O)c1 (stereo partly drawn) [Compound 2146] ({CH2CO}-[4Pal]Y(Carboxymethyl)D[Phe(3-Me)][Phe(4-COOH)][Bip]Y(Carboxymethyl)[NMeA][dL][Dab][Cha][Val(3-OH)][Thr(3ξ)]C[Dab]-NH2; thioether N-14) | 0.01 µM
